The text below walks through data of PMC10311245, “Novel leaderless bacteriocin geobacillin 6 from thermophilic bacterium Parageobacillus thermoglucosidasius” (Frontiers in Microbiology, 2023).

No end group written: not given here.

One series relates to Escherichia coli JM109. The conditions noted are these: ref Iwatani et al., 2007; cited from earlier work. From the text:
(§1) For comparison, previous studies have shown that pallidocin, a glycocin-type bacteriocin produced by thermophilic bacteria A. pallidus strain 8, was active in the pM range against other thermophiles, and a 2.4 pM concentration of pallidocin inhibited the growth of thermophilic bacterium P. genomospecies 1 strain NUB36187 ([Kaunietis et al., 2019]). Other leaderless bacteriocins are active in the μM and nM ranges ([Fujita et al., 2007]; [Iwatani et al., 2007]) and have a broad spectrum of activity.

Series [1] has as its system P. dextrinicus JCM 5887^T. The conditions noted are these: ref Iwatani et al., 2007; cited from earlier work.
Source text: as §1

The next series concerns B. coagulans JCM 2257^T. The conditions noted are these: ref Iwatani et al., 2007; cited from earlier work.
Source text: as §1

For series [2], the system named is L. sakei subsp. sakei JCM 1157^T. Particulars: ref Iwatani et al., 2007; cited from earlier work.
Source text: as §1

For series [3] the following is noted: CD spectroscopy, aqueous buffers; reversible two-state conversion between helical and unfolded forms; ref Hammond et al., 2020; cited from earlier work. The text has this: A recent study using the CD spectroscopy method confirmed the formation of helical structures in epidermicin NI01 and aureocin A53 in aqueous buffers. […] Due to these interesting findings, we decided to employ a thermal shift assay, also known as differential scanning fluorimetry (DSF), to analyze the thermal denaturation of Geo6 under different pH ranges and temperatures. Additionally, to the best of our knowledge, this ...

Series [4] deals with Parageobacillus toebii DSM 14590^T. In kind it is cell-based. On the procedure: (§2) MICs of Geo6 were determined according to the method of [Wiegand et al. (2008)] with some modifications. An indicator strain sensitive to bacteriocin was grown overnight at 55°C in a thermoshaker. The next day it was inoculated (2–3%) into fresh medium and cultivated until OD reached 1–1.5. The culture was further diluted and adjusted to 1 × 10^6 CFU/ml. A 95 μl of the medium was mixed with 5 μl of Geo6 and serial two-fold dilutions of suspension were made with the medium. Next, diluted mixtures were dispersed (100 μl) in a 96-well plate. A volume of 100 μl of previously prepared cell suspension was dispersed and mixed with the diluted bacteriocin in every well on the plate. As a result, the final volume of suspension in the well containing diluted bacteriocin and bacteria cells was 200 μl and the final concentration of the bacteria culture in the well was 5 × 10^5 CFU/ml. For each experiment, three replicates were made in the plate. Wells with positive controls contained a mixture of medium (95 μl) and Geo6 (5 μl), and negative controls contained bacteria suspension (5 × 10^5 CFU/ml) in the medium (100 μl). The plate was placed into a bag to prevent medium evaporation and put into a box, which was incubated overnight at 55°C in a thermoshaker. The next day, the growth inhibition was evaluated in the wells of the plate.

In series [5] the test system is Geobacillus lituanicus DSM 15325^T. In kind it is cell-based. On the procedure:
as §2

Series [6] relates to Geobacillus thermodenitrificans DSM 465^T. In kind it is cell-based. Here is the method: as §2
The subject of series [7] is Geobacillus thermoleovorans DSM 5366^T. In kind it is cell-based. Here is the method: as §2
In series [8] the test system is Geobacillus kaustophilus HTA 426. In kind it is cell-based. Here is the method: as §2
Series [9] in a line: Bacteriocin thermostability (activity by spot on a lawn assay after incubation). In kind it is physicochemical. Particulars: spot on a lawn read-out; for Antibacterial activity retained after heat treatment: two-fold dilutions. Here is the method:
[…] After incubation, serial two-fold dilutions of samples were made using medium, and further antibacterial activity of bacteriocin was assessed by spot on a lawn assay.

Series [10] in a line: Bacteriocin stability in different pH ranges (activity by spot on a lawn assay after incubation). In kind it is physicochemical. The conditions noted are these: pH range 3–11, 25 mM Britton-Robinson buffer, 1:20, room temperature 2 h, neutralized to pH 7; spot on a lawn read-out. Here is the method: For evaluation of stability at different pH ranges, purified recombinant Geo6 was mixed with 25 mM Britton-Robinson buffer solutions ([Ebihara et al., 2016]) with different pH values in a ratio of 1:20. After incubation at room temperature for 2 h samples were neutralized with NaOH or HCl solutions to pH 7. Further, samples were diluted two-fold using a medium and assessed for antibacterial activity using spot on a lawn assay.

Series [11] is described as follows: Thermal shift assay (differential scanning fluorimetry, SYPRO Orange). In kind it is physicochemical. Particulars: DSF, called inconclusive; for Melting temperature (Tm): 20–95°C, triplicate. On the procedure:
As an indicator of thermal denaturation in varying pH or other conditions a fluorescent SYPRO Orange dye (Invitrogen) that binds to hydrophobic parts of protein during its unfolding was used in this work. SYPRO Orange 50× stock solution was prepared by diluting 2.5 μl of 5,000× concentrate into 250 μl of deionized (DI) water. A volume of 2.5 μl of 50× SYPRO Orange was aliquoted into a white HardShell 96-well PCR plate (Bio-Rad). Different pH buffer solutions (25 mM Briton-Robinson, pH 3–11; [Bendikienė et al., 2004]) were added to aliquoted SYPRO Orange followed by adding an appropriately diluted solution of purified Geo6 into the wells at a final concentration of 0.25 nmol/ml (1.3 μg/ml). The final volume of the mixture was 25 μl. The negative control was 25 mM of Briton-Robinson buffer solutions in a range of pH 3 to 11, with 2.5 μl of SYPRO Orange. Lysozyme (final concentration of 100 μg/ml) diluted in 25 mM Briton-Robinson buffer (pH 5 and 6) and mixed with 2.5 μl of SYPRO Orange was used as a positive control. A curve experiment for DNA with the elimination of the initial denaturation step at 95°C was used. The melt curve temperature range was set from 20°C to 95°C in increments of 0.5°C for 5 s. Each experimental condition was prepared in triplicate. Thermal shift analysis or differential scanning fluorimetry (DSF) of Geo6 was performed in CFX Touch Real TIME PCR System (Bio-Rad) using CFX Manager (Bio-Rad) software.

Series [12] relates to G. kaustophilus HTA 426^T. Kind of series: Live/dead assay (membrane integrity, SYTO9 and PI). The conditions noted are these: 600 nM Geo6, 30 min, BHI, 55°C; fluorescence microscopy; red = damaged membrane. In kind it is cell-based, Geobacillus kaustophilus. Here is the method:
An indicator strain G. kaustophilus HTA 426^T sensitive to bacteriocin was grown in BHI medium at 55°C till OD 0.5 was reached. Next, the bacteria culture was treated with 600 nM of Geo6 and further cultivated for 30 min. Then, the cell culture was centrifuged at 3000 ×g for 5 min and further washed two times with 0.9% NaCl solution (centrifuged at 3000 ×g for 5 min). After the last wash, cells were suspended in 0.9% NaCl solution and stained using LIVE/DEAD BacLight Bacterial Viability Kit (Invitrogen) containing SYTO9 and […] according to manufacturers’ recommendations. Cells were incubated in the dark at room temperature for 15 min. Next, cells were centrifuged at 3000 ×g for 5 min and washed two times with 0.9% NaCl solution (centrifuged at 3000 ×g for 5 min). Further, 10 μl of Geo6 treated cells and nontreated control cells suspensions were spotted onto objective slides and examined using a fluorescence microscope using filters FITC (480/500 nm) and Texas Red (490/635 nm).

For the next series, the system named is B. campestris ATCC 43754. The conditions noted are these: ref Acedo et al., 2016; cited from earlier work.
Source text: as §1

The subject of the next series is L. lactis ATCC 19257. The conditions noted are these: ref Acedo et al., 2016; cited from earlier work.
Source text: as §1

Series [13] deals with P. genomospecies 1 strain NUB36187. The conditions noted are these: thermophilic bacterium; ref Kaunietis et al., 2019; cited from earlier work.
Source text: as §1

Broadly, the MIC is the least concentration at which growth counts as inhibited. Take lacticin Q: the Antibacterial activity entry in the series with Escherichia coli JM109 is “No activity was detected”. Further, the MIC in series [1] is given as 7.3 nM; in the series on B. coagulans JCM 2257^T, 1.6 nM; in [2], 3.2 nM.
epidermicin NI01: the Denaturation temperature in [3] was 60 °C.
“GMATFLRIVAQLSSKAAKWALDNKDKVLKWIRDGMAIDWIIDKINDIVG [Geo6, geobacillin 6]”: the MIC in series [4] came to 4.45 µM; in series [5], 585 nM; in [6], 2.34 µM; in [7], 585 nM; in series [8], 293 nM. Also, the “Antibacterial activity retained after heat treatment” value is 100% in [9] (60°C for 2 h); 100% in [9] (70°C for 2 h); “did not abolish its activity” in series [9] (95°C for 6 h); 100% in series [9] (95°C for 6 h, listed as Geobacillin 6); 100% in series [9] (100°C for 2 h). For the same substance, the “Antibacterial activity retained after incubation at room temperature” value in series [9] (room temperature for 24 h) stood at 100%. Also, the “Antibacterial activity retained after incubation at different pH” value in series [10] was determined as 100%. For the same substance, the “Melting temperature (Tm)” value was “none” in series [11] (25 mM Briton-Robinson buffer pH 8, 0.25 nmol/ml (1.3 μg/ml)); 76.75±1.77 °C in [11] (25 mM Briton-Robinson buffer pH 9, 0.25 nmol/ml (1.3 μg/ml)); 76.5 °C in series [11] (25 mM Briton-Robinson buffer pH 10, 0.25 nmol/ml (1.3 μg/ml)); 80.5±0.7 °C in series [11] (25 mM Briton-Robinson buffer pH 11, 0.25 nmol/ml (1.3 μg/ml)). Moreover, the “Melting temperatures (Tm), partial unfolding” value in [11] (range of pH 9–11, 20–95°C) was 76.5–80.5 °C. In addition, the “Membrane integrity (SYTO9/PI fluorescence of treated cells)” value in [12] was “all the cells exhibited red fluorescence”.
With “aureocin A54 (MSWLNFLKYIAKYGKKAVSAAWKYKGKVLEWLNVGPTLEWVWQKLKKIAGL; UniProt Q8GPI4 1-51, looked up)”, the MIC was 2 µM in the series with B. campestris ATCC 43754 and 250 nM in the series on L. lactis ATCC 19257.
Consider pallidocin, for which the “Concentration that inhibited growth” value in series [13] was 2.4 pM.
